According to the kinase profiling compilation of Christmann-Franck et al. (2016):
“And” between values parts separate entries of the source, which are not always exact repeats. Identical values can stand only once.

Experiments:
Test in all cases: KINOMEscan competition binding
Conditions in all cases: compound 10.0 µM
RPS6KA5 KD1 (human) = RPS6KA5 KD1 (human) (UniProt O75582)
PAK3 (human) = PAK3 (human) (UniProt O75914)
EPHA5 (human) = EPHA5 (human) (UniProt P54756)
DYRK1A (human) = DYRK1A (human) (UniProt Q13627)
PRKCQ (human) = PRKCQ (human) (UniProt Q04759)
CAMK2G (human) = CAMK2G (human) (UniProt Q13555)
KDR (human) = KDR (human) (UniProt P35968)
PIP4K2B (human) = PIP4K2B (human) (UniProt P78356)
CAMKK2 (human) = CAMKK2 (human) (UniProt Q96RR4)
DAPK1 (human) = DAPK1 (human) (UniProt P53355)
Sequence of DAPK1 (human) (P53355 whole entry, looked up): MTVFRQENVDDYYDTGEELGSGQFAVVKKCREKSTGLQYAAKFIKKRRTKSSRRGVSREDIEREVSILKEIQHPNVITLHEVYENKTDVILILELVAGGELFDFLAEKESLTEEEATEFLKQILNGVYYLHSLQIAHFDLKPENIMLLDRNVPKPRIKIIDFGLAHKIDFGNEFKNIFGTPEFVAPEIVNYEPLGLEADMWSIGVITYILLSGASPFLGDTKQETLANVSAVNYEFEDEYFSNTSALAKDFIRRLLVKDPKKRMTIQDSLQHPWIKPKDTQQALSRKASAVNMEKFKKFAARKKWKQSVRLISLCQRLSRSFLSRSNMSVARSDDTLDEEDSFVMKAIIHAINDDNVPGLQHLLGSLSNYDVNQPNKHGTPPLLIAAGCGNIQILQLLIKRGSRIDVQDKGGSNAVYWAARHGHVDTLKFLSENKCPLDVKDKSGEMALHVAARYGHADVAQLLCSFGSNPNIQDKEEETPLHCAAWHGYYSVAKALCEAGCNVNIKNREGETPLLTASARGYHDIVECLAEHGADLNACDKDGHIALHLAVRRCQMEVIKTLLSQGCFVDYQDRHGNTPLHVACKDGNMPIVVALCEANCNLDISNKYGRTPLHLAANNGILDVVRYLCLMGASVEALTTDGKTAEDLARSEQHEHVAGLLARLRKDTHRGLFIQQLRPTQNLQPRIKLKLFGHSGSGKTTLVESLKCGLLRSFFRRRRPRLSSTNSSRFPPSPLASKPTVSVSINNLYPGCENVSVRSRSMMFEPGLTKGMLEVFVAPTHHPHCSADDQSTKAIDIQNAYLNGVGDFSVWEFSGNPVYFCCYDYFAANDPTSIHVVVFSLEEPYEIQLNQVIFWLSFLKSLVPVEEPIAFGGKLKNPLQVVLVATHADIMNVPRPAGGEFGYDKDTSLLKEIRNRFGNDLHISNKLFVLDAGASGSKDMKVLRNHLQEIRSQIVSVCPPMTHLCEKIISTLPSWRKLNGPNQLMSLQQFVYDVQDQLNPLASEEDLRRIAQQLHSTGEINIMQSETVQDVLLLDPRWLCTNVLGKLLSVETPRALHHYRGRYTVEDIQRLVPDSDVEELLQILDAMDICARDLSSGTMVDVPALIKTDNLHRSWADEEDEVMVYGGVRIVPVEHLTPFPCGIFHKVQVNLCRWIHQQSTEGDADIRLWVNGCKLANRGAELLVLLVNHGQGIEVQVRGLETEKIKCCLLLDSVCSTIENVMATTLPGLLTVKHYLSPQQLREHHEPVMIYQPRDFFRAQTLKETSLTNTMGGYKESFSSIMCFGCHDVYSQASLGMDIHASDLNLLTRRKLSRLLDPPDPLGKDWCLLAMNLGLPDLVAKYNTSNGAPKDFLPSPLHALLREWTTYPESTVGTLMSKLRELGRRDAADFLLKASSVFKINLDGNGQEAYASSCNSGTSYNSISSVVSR

STK4 (human) = STK4 (human) (UniProt Q13043)
LATS1 (human) = LATS1 (human) (UniProt O95835)
RIOK2 (human) = RIOK2 (human) (UniProt Q9BVS4)
CDK17 (human) = CDK17 (human) (UniProt Q00537)
ITK (human) = ITK (human) (UniProt Q08881)
RPS6KA4 KD1 (human) = RPS6KA4 KD1 (human) (UniProt O75676)
Sequence of RPS6KA4 KD1 (human) (O75676 whole entry, looked up): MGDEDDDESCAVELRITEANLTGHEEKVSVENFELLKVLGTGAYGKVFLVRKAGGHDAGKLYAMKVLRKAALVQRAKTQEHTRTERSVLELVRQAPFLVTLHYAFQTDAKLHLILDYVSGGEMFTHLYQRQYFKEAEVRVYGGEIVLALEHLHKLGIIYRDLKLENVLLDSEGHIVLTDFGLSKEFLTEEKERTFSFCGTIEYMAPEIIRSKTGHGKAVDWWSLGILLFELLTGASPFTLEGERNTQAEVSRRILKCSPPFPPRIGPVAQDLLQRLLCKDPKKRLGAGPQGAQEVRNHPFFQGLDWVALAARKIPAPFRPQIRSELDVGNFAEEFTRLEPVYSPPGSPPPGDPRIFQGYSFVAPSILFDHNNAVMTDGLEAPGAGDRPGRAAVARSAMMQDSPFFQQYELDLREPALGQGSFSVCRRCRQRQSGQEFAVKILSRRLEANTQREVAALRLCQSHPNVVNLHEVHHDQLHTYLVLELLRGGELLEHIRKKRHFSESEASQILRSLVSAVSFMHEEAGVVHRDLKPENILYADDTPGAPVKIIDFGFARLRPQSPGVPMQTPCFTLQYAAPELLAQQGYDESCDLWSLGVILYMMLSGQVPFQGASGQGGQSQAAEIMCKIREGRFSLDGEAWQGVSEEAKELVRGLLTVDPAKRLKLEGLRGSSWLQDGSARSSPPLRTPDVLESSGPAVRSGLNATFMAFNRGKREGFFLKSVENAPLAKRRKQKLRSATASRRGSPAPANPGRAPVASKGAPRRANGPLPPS

PIK3C2B (human) = PIK3C2B (human) (UniProt O00750)
NEK7 (human) = NEK7 (human) (UniProt Q8TDX7)
Sequence of NEK7 (human) (Q8TDX7 whole entry, looked up): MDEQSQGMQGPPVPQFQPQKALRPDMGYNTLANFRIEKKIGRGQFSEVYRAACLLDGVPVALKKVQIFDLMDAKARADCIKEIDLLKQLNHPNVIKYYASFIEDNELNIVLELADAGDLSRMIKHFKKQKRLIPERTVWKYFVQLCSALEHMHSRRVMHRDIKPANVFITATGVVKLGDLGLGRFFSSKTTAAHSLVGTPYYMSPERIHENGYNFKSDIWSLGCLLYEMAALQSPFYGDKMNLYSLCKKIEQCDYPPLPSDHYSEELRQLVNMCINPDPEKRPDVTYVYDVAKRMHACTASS

MAP3K10 (human) = MAP3K10 (human) (UniProt Q02779)
MAP4K4 (human) = MAP4K4 (human) (UniProt O95819)
Sequence of MAP4K4 (human) (O95819 whole entry, looked up): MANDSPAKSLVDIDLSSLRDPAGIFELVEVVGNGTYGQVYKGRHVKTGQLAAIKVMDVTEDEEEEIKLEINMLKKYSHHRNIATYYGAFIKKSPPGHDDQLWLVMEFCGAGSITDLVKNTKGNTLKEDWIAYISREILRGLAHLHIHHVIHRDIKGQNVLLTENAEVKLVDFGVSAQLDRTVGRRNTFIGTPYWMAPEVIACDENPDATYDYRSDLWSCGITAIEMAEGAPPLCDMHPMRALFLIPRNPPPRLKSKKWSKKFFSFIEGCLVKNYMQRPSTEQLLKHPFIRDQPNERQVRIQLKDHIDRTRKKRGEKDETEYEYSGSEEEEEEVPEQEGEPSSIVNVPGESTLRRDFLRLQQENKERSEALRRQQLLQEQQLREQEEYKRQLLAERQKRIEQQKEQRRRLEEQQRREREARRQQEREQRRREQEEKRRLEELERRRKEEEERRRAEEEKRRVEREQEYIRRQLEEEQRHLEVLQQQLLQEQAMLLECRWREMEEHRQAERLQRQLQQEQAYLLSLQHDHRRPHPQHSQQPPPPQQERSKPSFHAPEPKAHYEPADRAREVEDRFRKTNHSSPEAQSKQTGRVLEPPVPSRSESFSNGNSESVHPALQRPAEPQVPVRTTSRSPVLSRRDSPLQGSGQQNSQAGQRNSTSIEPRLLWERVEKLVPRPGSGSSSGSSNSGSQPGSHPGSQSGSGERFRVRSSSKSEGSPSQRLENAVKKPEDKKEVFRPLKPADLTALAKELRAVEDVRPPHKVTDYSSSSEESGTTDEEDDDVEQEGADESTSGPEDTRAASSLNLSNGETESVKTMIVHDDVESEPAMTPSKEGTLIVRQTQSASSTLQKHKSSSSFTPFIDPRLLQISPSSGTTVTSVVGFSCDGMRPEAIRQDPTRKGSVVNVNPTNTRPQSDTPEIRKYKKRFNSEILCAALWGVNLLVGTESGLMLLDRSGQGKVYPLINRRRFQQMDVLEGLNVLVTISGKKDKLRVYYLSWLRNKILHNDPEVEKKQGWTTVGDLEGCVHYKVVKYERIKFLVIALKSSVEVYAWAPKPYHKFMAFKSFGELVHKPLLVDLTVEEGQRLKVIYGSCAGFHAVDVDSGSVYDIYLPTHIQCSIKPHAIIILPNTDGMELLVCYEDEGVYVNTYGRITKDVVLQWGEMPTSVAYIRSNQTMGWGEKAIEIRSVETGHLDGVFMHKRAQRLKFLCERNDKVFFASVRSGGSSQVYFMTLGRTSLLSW

CDK4 CCND3 (human) = CDK4 CCND3 (human) (UniProt P11802+P30281)
NTRK2 (human) = NTRK2 (human) (UniProt Q16620)
CASK (human) = CASK (human) (UniProt O14936)
CDC42BPG (human) = CDC42BPG (human) (UniProt Q6DT37)
CDKL1 (human) = CDKL1 (human) (UniProt Q00532)
PIK3CA (human) = PIK3CA (human) (UniProt P42336)
VRK2 (human) = VRK2 (human) (UniProt Q86Y07)
DMPK (human) = DMPK (human) (UniProt Q09013)
BRSK2 (human) = BRSK2 (human) (UniProt Q8IWQ3)
NEK2 (human) = NEK2 (human) (UniProt P51955)
PLK3 (human) = PLK3 (human) (UniProt Q9H4B4)
Sequence of PLK3 (human) (Q9H4B4 whole entry, looked up): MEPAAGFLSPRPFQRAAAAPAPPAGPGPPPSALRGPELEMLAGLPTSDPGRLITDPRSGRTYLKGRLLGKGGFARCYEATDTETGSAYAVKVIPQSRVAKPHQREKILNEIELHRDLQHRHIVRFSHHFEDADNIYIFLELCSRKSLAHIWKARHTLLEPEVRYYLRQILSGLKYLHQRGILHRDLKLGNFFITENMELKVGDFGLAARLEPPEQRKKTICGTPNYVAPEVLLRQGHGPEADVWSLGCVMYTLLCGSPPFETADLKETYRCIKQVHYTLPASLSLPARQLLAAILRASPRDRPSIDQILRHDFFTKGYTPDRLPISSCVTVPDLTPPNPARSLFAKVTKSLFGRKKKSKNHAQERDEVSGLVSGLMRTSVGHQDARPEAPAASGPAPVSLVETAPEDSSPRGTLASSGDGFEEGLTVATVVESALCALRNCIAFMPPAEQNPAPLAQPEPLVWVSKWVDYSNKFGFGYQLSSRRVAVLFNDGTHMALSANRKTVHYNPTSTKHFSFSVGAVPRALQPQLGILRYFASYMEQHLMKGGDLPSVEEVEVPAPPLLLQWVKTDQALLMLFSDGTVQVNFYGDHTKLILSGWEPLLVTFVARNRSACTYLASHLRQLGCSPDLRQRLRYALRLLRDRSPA

RPS6KA3 KD1 (human) = RPS6KA3 KD1 (human) (UniProt P51812)
RPS6KA2 KD1 (human) = RPS6KA2 KD1 (human) (UniProt Q15349)
CSNK1G1 (human) = CSNK1G1 (human) (UniProt Q9HCP0)
ANKK1 (human) = ANKK1 (human) (UniProt Q8NFD2)
MELK (human) = MELK (human) (UniProt Q14680)
Sequence of MELK (human) (Q14680 whole entry, looked up): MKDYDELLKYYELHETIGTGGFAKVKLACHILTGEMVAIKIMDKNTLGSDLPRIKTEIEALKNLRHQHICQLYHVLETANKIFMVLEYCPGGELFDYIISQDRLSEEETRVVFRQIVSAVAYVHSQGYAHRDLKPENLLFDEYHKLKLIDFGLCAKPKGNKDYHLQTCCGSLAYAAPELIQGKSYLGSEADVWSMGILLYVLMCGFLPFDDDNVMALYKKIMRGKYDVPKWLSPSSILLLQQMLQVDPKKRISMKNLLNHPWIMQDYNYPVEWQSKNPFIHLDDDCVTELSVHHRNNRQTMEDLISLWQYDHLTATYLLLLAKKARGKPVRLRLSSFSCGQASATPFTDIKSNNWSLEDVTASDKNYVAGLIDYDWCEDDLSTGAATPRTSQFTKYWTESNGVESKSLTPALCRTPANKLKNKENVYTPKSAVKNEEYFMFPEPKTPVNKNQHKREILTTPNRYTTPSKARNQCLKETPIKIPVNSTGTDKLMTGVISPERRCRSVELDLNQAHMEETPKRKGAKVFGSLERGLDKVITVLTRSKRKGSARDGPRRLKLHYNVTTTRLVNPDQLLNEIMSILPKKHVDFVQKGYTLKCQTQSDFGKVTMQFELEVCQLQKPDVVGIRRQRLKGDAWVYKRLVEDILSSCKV

AKT2 (human) = AKT2 (human) (UniProt P31751)
PTK6 (human) = PTK6 (human) (UniProt Q13882)
TAOK1 (human) = TAOK1 (human) (UniProt Q7L7X3)
NEK9 (human) = NEK9 (human) (UniProt Q8TD19)

For `O=C1NC(=O)/C(=C/c2ccc3nccc(-c4ccncc4)c3c2)S1`, the kinase still bound, per cent of control (RPS6KA5 KD1 (human)) was 100%, the kinase still bound, per cent of control (PAK3 (human)) was 20% and the kinase still bound, per cent of control (EPHA5 (human)) was 91%. It also gave a kinase still bound, per cent of control (DYRK1A (human)) of 0%, a kinase still bound, per cent of control (PRKCQ (human)) of 60% and a kinase still bound, per cent of control (CAMK2G (human)) of 28%. For the same compound, the kinase still bound, per cent of control (KDR (human)) was 81%, the kinase still bound, per cent of control (PIP4K2B (human)) was 4% and the kinase still bound, per cent of control (CAMKK2 (human)) was 2%. The kinase still bound, per cent of control (DAPK1 (human)) was 6.4%, the kinase still bound, per cent of control (STK4 (human)) was 81% and the kinase still bound, per cent of control (LATS1 (human)) was 80%. It also gave a kinase still bound, per cent of control (RIOK2 (human)) of 37%, a kinase still bound, per cent of control (CDK17 (human)) of 59% and a kinase still bound, per cent of control (ITK (human)) of 81%. The kinase still bound, per cent of control (RPS6KA4 KD1 (human)) was 79%, the kinase still bound, per cent of control (PIK3C2B (human)) was 0.15% and the kinase still bound, per cent of control (NEK7 (human)) was 88%. The kinase still bound, per cent of control (MAP3K10 (human)) was 60%, the kinase still bound, per cent of control (MAP4K4 (human)) was 41% and 47% and the kinase still bound, per cent of control (CDK4 CCND3 (human)) was 100%. It also gave a kinase still bound, per cent of control (NTRK2 (human)) of 73%, a kinase still bound, per cent of control (CASK (human)) of 59% and a kinase still bound, per cent of control (CDC42BPG (human)) of 90%. It also gave a kinase still bound, per cent of control (CDKL1 (human)) of 61%, a kinase still bound, per cent of control (PIK3CA (human)) of 0.05% and a kinase still bound, per cent of control (VRK2 (human)) of 81%. For the same compound, the kinase still bound, per cent of control (DMPK (human)) was 2.9%, the kinase still bound, per cent of control (BRSK2 (human)) was 91% and the kinase still bound, per cent of control (NEK2 (human)) was 64%. It also gave a kinase still bound, per cent of control (PLK3 (human)) of 49%, a kinase still bound, per cent of control (RPS6KA3 KD1 (human)) of 41% and a kinase still bound, per cent of control (RPS6KA2 KD1 (human)) of 100%. For the same compound, the kinase still bound, per cent of control (CSNK1G1 (human)) was 20%, the kinase still bound, per cent of control (ANKK1 (human)) was 47% and the kinase still bound, per cent of control (MELK (human)) was 8.6%. For the same compound, the kinase still bound, per cent of control (AKT2 (human)) was 100%, the kinase still bound, per cent of control (PTK6 (human)) was 87% and the kinase still bound, per cent of control (TAOK1 (human)) was 3%. The kinase still bound, per cent of control (NEK9 (human)) was 95%.
